Test results: patent US20230134760A1, “CAR AND NRF2 DUAL ACTIVATOR AGENTS FOR CYCLOPHOSPHAMIDE-BASED AND DOXORUBICIN-BASED TREATMENTS OF CANCER” (priority 2020, published 2023)

System: HO-1
Experiment: HO-1 expression in MDA-MB-231 cells
Type: cell-based
Details: MDA-MB-231, 10 μM, 24 hours
Description: Immortalized triple negative breast cancer cell lines MDA-MB-231 and BT549 were obtained from ATCC (Rockville, Md.). Additionally, the h9c2 cell line was purchased from ATCC (Rockville, Md.). […] Human iPSC-derived cardiomyocytes were maintained in Mtesr plus and supplemented according to protocol. These cells were treated for 2 hrs or an overnight as indicated. Following a 2 hr pretreatment, cells were co-treated with DOX at indicated concentrations for 6 or 22 hours. Following the overnight treatments, RNA or protein was isolated. HPH were seeded in collagen-coated 24 well plates and pretreated for 24 hrs. BT549 were seeded on inverted coverslips. After a 24 hr pretreatment, hepatocytes were co-administered as indicated and coverslips were inserted. The cell lines were used for less than 60 passages. After 24 h treatment, HPH, BT549, MDA-MB-231, and H9c2 cells were washed and a phenol-chloroform extraction was used to isolate total RNA with the TRIzol reagent (ThermoFisher, Rockford, Ill.). Reverse transcription was performed on extracted RNA (1 μg) to produce cDNA using the High Capacity cDNA Archive kit according to manufacturer's instructions (Applied Biosystems, Foster, Calif.). […] Quantification of expression changes was done by the 2^ΔΔCt method, normalizing to GAPDH as the housekeeping gene and determining the fold change compared to control values (n=3). […]

O=C(NCCN=C=S)c1c(-c2ccc3ccccc3c2)nc2sccn12 [DL7076, N-(2-Isothiocyanatoethyl)-6-(naphthalen-2-yl)imidazo[2,1-b]thiazole-5-carboxamide] was tested, and the HO-1 induction was 1.4 fold.
